Experimental data from patent publication USRE39682E1, “Farnesyl derivatives and pharmaceutical compositions containing them” (Ramot at Tel Aviv University Ltd., priority 1993, dated 2007).
Like-named read-outs stand apart in the source and are kept apart here.

How the values were obtained:
Type in all cases: biochemical
PPMTase [1] = biological target: T1, PPMTase (Mus musculus, UniProt Q9EQK7); experiment: PPMTase activity (AFC methylation) in membranes of B16F10 melanoma cells; conditions: for PPMTase activity: with inhibitor
T1 construct: PPMTase activity in membranes obtained from four different cell lines as determined by methylation of AFC; endogenous in cells; host or cells: B16F10 melanoma cell membranes
Description: (§1) Charles River adult male rats were used for preparation of cerebellar synaptosomal membranes. Cerebella were removed after decapitation and homogenized in 0.32M sucrose containing 50 mM Tris-HCl pH 7.4, 3 mM EDTA, 1 mM EGTA, 5 unit/ml aprotinin and 5 μg/ml pepstatin (buffer A) to yield 10% (w/v) homogenates. Nuclear fractions were obtained by 10 min. 600×g centrifugation and synaptosomal fractions were obtained by 20 mins. 14,500×g centrifugation. Membranes of the various cell types used were prepared in the above buffer A by a 60 min. spin at 100,000×g.
(§2) Pellets were resuspended in the homogenization buffer and stored at −70° C. Methylation assays were performed at 37° C. in 50 mM Tris-HCl buffer pH 7.4, using 75-125 μg protein, 25 μM [methyl-^3H]AdoMet ([…]) as a methyl donor and 150 μM AFC as a methylation substrate (prepared as a stock solution in DMSO) in a total volume of 50 μl. DMSO concentration in all assays was 4%.
(§3) Reactions were terminated after 10 min. by adding 500 μl chloroform methanol (1:1) and a subsequent addition of 250 μl H2O, mixing them and subsequently by phase separation. A portion of 125 μl of the chloroform phase was dried down at 40° C. and 200 μl of 1M NaOH/1% SDS solution were added thereto. The [^3H]methanol thus formed was counted by the vapor phase equilibrium method as described previously (Hakiai et al., Cell Mol. Neurobiol., 11, 415-431, (1991); Lenner et al., Cell Mol. Neurbiol., 12, 333 and 3351, (1992); Ben-Baruch et al., Biochem. Biophy. Res. Commun., 195, 282-288, (1993)). Typical background counts (i.e. counts of methylation with no AFC added) were 50-100 cpm while typical methylation counts with AFC as a substrate yielded 500 to 6000 cpm. Assays were performed in triplicate and background counts subtracted. Methylation of endogenous substrates, in intact cells, and [α-^32P] GTP-blot overlay assays and gel electrophoreses were performed as detailed previously (Hakiai et al., supra (1991); Lenner et al., supra (1993)).
(§4) The B16F10 melanoma cells were grown in RPMI 1640/10% fetal calf serum, 2 mM glutamine and antibiotics as for the HEC1A cells, at the density of 1×10^4 cells/well. All four types of cells were used for determining the PPMTase activity using AFC as the substrate as described above for synaptosomal membrane preparation. Usually 150 μg membranal proteins were used in the assay for a 10 min. incubation time.

PPMTase [2] = biological target: T2, PPMTase (Rattus norvegicus, UniProt Q9WVM4); experiment: PPMTase activity (AFC methylation) in membranes of ras-transformed rat1 cells; conditions: ras-transformed rat fibroblast membranes; for PPMTase activity: with inhibitor
T2 construct: PPMTase activity in membranes obtained from four different cell lines as determined by methylation of AFC; endogenous in cells; host or cells: ras-transformed rat1 (EJ) cell membranes
Description: as §1, §2, §3, §4

PPMTase [3] = biological target: T3, PPMTase (Homo sapiens, UniProt O60725); experiment: PPMTase activity (AFC methylation) in membranes of HEC1A cells; conditions: for PPMTase activity: with inhibitor
T3 construct: PPMTase activity in membranes obtained from four different cell lines as determined by methylation of AFC; endogenous in cells; host or cells: HEC1A cell membranes
Description: as §1, §2, §3, §4

[4] = biological target: T4, prenylated protein methyltransferase (PPMTase) (Rattus norvegicus, UniProt Q9WVM4); experiment: Methylation of AFC by PPMTase in rat cerebellar synaptosomal membranes; conditions: for IC50: synaptosomal membranes, FIG. 2, read-out: IC50 (concentration resulting in 50% inhibition of AFC methylation)
T4 construct: from tissue; host or cells: rat cerebellum, synaptosomal membranes
Excerpt: As a substrate for methylation served AFC and as the donor of methyl served [methyl-H^3] labelled AdoMet. As a source of the enzyme prenylated protein methyltransferase (PPTMase) served rat cerebellar membranes which are known to be membranes enriched with this enzyme (Ben-Baruch, Biochem. Biophys. Res. Commun., 195, 282-288. (1993)).
as §1
Pellets were resuspended in the homogenization buffer and stored at −70° C. Methylation assays were performed at 37° C. in 50 mM Tris-HCl buffer pH 7.4, using 75-125 μg protein, 25 μM [methyl-^3H]AdoMet ([…] in DMSO) in a total volume of 50 μl. DMSO concentration in all assays was 4%.
as §3

[5] = Table II, given as range, read-out: Ki
[6] = from FIG. 2 curves, 100 μM AFC, read-out: inhibition constant (Ki)

T4 sequence (Q9WVM4 whole entry): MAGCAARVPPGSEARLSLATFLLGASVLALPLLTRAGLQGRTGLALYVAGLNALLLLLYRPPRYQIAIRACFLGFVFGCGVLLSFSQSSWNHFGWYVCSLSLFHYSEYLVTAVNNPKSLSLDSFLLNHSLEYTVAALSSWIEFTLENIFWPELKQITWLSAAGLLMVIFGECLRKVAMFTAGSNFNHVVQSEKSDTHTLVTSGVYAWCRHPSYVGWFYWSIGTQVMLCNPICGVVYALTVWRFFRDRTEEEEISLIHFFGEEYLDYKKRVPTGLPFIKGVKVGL
T2 sequence (Q9WVM4 whole entry): as above
T3 sequence (O60725 whole entry): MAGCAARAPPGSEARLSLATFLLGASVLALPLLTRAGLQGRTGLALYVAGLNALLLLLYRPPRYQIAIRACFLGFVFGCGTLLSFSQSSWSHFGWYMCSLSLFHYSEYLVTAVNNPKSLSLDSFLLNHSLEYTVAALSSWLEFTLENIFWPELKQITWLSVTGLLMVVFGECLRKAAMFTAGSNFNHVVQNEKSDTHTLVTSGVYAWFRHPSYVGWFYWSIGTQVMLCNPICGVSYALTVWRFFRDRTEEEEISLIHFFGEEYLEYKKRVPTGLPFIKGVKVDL
T1 sequence (Q9EQK7 whole entry): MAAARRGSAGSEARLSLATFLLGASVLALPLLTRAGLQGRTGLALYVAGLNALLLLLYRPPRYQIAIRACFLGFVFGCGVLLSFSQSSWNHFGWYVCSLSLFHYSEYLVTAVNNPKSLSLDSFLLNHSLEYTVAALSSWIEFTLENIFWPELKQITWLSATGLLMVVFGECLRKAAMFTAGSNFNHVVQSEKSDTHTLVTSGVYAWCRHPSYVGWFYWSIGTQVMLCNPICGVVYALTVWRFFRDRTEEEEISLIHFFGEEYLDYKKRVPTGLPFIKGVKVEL

SMILES: CC(C)=CCC/C(C)=C/CC/C(C)=C/CSCC(=O)O [FTA, S-trans, trans-farnesylthioacetic acid, reference compound]
- % Inhibition (PPMTase [1]): 38%
- PPMTase activity (PPMTase [1]): 1.3 pmol/min/mg protein
- % Inhibition (PPMTase [2]): 72%
- PPMTase activity (PPMTase [2]): 1.9 pmol/min/mg protein
- % Inhibition (PPMTase [3]): 43%
- PPMTase activity (PPMTase [3]): 1.7 pmol/min/mg protein
- [3H-methyl]ester formed ([4]; 100 μM AFC + 200 μM inhibitor): 320 ± 50 cpm/assay
- IC50 ([4]; 100 μM AFC): 23 µM
- Ki [4, 5]: 5.7 to 10.5 µM
- Ki [4, 6]: 4 µM

SMILES: CC(C)=CCC/C(C)=C/CC/C(C)=C/CSc1ccccc1C(=O)O [FTS, (3,7,11-trimethyl-dodeca-2,6,10-trienyl)-2-thiobenzoic acid]
- % Inhibition (PPMTase [1]): 50%
- PPMTase activity (PPMTase [1]): 1.7 pmol/min/mg protein
- % Inhibition (PPMTase [2]): 73%
- PPMTase activity (PPMTase [2]): 1.8 pmol/min/mg protein
- % Inhibition (PPMTase [3]): 40%
- PPMTase activity (PPMTase [3]): 1.5 pmol/min/mg protein
- serves as substrate for PPMTase methylation [4]: does not serve as a substrate
- [3H-methyl]ester formed ([4]; 100 μM AFC + 200 μM inhibitor): 280 ± 30 cpm/assay
- IC50 ([4]; 100 μM AFC): 10 µM
- [3H-methyl]ester formed ([4]; 200 μM of the substance alone as substrate): 30 ± 10 cpm/assay
- Ki [4, 5]: 1.5 to 4.2 µM
- Ki [4, 6]: 1.5 µM
